Laboratory results reported in patent US11318157B2, “6-6 bicyclic aromatic ring substituted nucleoside analogues for use as PRMT5 inhibitors” (Janssen Pharmaceutica NV, priority 2015, dated 2022).
pIC50: −log10 of the molar value. Read-outs that look alike come from different tables or passages of the source.

Columns and labels:
[1] = target: T1, PRMT5-MEP50 enzyme (Homo sapiens, UniProt O14744); experiment: In vitro assay 1a: high throughput mass spectrometer assay of SAH formation, 10 nM enzyme, 60 min; type: biochemical; details: averaged values, PRMT5-MEP50, 10 nM enzyme; for IC50: read-out: pIC50 Assay 1a (converted); for pIC50: pIC50 Assay 1a
T1 construct: One virus expresses full length human PRMT5 with Flag-tag at N-terminus; Flag (N); purchased Charles River (Argenta); host or cells: insect cells (Sf9), baculovirus co-infection
In short: (§1)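 SAH product measured by RapidFire mass spectrometry after formic acid stop; IC50 from 11-point 1:2 dilutions, four-parameter fit. Reactions at 30 °C in 20 mM Tris pH 8.5 with 1 μM SAM, 0.3 μM H2A: assay 1a 10 nM PRMT5-MEP50, 60 min; assay 1b 1.25 nM, 120 min.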

[2] = target: T1, PRMT5-MEP50 enzyme; experiment: In vitro assay 1b: high throughput mass spectrometer assay of SAH formation, 1.25 nM enzyme, 120 min; type: biochemical; details: for IC50: averaged values, PRMT5-MEP50, 1.25 nM enzyme, 120 min, read-out: pIC50 Assay 1b (converted)
In short: as §1

[3] = tested on: nuclear symmetric Arginine dimethylation in A549 cells; experiment: PD assay (assay 2): inhibition of nuclear symmetric Arginine dimethylation (SYM10 immunohistochemistry), 48 h; type: cell-based; details: Homo sapiens
In short: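 Cells seeded at 400/well overnight, then treated 48 h at 37 °C, final DMSO 0.2%. Fixed and stained with SYM10 antibody plus Alexa 488 secondary, Hoechst and CellMask, then imaged on Opera. Normalized to DMSO (high) and 10 μM reference compound (low); averaged pIC50 reported.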

[4] = A549, read-out: pIC50 Assay 2 (converted)
[5] = A549, averaged values, PD assay, A549 cells, symmetric Arginine dimethylation, read-out: pIC50 Assay 2 (converted)

T1 sequence (O14744 whole entry): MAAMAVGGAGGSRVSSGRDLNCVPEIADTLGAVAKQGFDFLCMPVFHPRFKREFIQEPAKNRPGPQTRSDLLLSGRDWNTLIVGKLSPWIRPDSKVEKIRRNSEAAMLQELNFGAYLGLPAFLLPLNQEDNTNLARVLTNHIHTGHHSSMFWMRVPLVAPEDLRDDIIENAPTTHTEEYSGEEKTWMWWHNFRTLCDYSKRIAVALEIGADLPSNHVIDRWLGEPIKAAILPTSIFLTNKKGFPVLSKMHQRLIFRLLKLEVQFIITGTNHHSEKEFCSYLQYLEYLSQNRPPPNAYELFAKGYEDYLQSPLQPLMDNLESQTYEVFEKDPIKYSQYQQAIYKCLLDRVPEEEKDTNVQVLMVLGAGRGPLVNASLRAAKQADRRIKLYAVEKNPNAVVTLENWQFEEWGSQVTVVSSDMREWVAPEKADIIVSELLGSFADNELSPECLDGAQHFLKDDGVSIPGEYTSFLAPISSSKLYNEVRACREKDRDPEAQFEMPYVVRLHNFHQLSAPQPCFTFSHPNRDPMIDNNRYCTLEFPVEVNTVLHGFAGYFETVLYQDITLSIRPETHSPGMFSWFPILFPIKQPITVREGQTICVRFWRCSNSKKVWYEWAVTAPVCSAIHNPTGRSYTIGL
T1 sequence (Q9BQA1 whole entry partner): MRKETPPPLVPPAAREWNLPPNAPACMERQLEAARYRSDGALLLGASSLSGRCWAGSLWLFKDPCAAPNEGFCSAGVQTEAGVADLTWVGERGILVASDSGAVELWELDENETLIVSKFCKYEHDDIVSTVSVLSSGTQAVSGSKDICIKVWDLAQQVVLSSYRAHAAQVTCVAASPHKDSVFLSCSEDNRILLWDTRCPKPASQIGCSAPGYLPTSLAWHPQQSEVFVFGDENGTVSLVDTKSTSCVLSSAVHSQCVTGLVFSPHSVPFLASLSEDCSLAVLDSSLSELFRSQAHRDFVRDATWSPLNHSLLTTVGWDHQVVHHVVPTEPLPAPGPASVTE

Compound	IC50 [1] [nM]	IC50 [2] [nM]	IC50 [3, 4] [nM]	IC50 [3, 5] [nM]	pIC50 [1]	pIC50 [2]
CN(C)c1ccc2ccc(OC[C@H]3O[C@@H](n4ccc5c(N)ncnc54)[C@H](O)[C@@H]3O)cc2n1 [Compound 23]	501	316	398	–	–	–
Nc1ncc2ccc(CC[C@H]3C[C@@H](n4ccc5c(N)ncnc54)[C@H](O)[C@@H]3O)cc2n1 [Compound 216]	1	7.94	–	10	–	–
Nc1ncnc2c1ccn2[C@@H]1C[C@H](/C=C/c2ccc3cccnc3c2)[C@@H](O)[C@H]1O [Compound 55]	–	–	–	~51.3	8.10	7.50
N#Cc1ccc2ccc(OC[C@H]3O[C@@H](n4ccc5c(N)ncnc54)[C@H](O)[C@@H]3O)cc2n1 [Compound 70]	631	1580	–	6310	–	–
Nc1ncnc2c1ccn2[C@@H]1C[C@H](OCc2ccc3ncccc3c2)[C@@H](O)[C@H]1O [Compound 65]	3160	1000	–	15800	–	–
Nc1ncnc2c1ccn2[C@@H]1O[C@H](COc2cc3ncccc3cc2I)[C@@H](O)[C@H]1O [Compound 3]	39.8	158	–	631	–	–
O[C@@H]1[C@@H](CCc2ccc3ccc(NCC4CC4)nc3c2)C[C@@H](n2ccc3cncnc32)[C@@H]1O [Compound 166]	1	5.01	–	1	–	–
CC(C)Cc1cnc2cc(OC[C@H]3O[C@@H](n4ccc5c(N)ncnc54)[C@H](O)[C@@H]3O)ccc2c1 [Compound 112]	50.1	200	–	398	–	–
Nc1ccc2ccc(CC[C@H]3O[C@@H](n4ccc5cncnc54)[C@H](O)[C@@H]3O)cc2n1 [Compound 167]	0.794	5.01	–	3.16	–	–
Nc1ncnc2c1ccn2[C@@H]1O[C@H](COc2cc(C(F)(F)F)c3cccnc3c2)[C@@H](O)[C@H]1O [Compound 37]	1000	631	–	5010	–	–
Cc1ncnc2c1ccn2[C@@H]1O[C@H](COc2ccc3ccc(NCc4ccc(Cl)cc4)nc3c2)[C@@H](O)[C@H]1O [Compound 205]	3.16	25.1	–	50.1	–	–
CNc1ccc2ccc(OC[C@H]3O[C@@H](n4ccc5cncnc54)[C@H](O)[C@@H]3O)cc2n1 [Compound 174]	10	50.1	–	126	–	–
Nc1ncnc2c1ccn2[C@@H]1C[C@H](COc2ccc3cc(Cl)cnc3c2)[C@@H](O)[C@H]1O [Compound 222]	31.6	63.1	–	~174	–	–
Nc1ncnc2c1ccn2[C@@H]1C[C@H](CNc2ccc3cc(Br)cnc3c2)[C@@H](O)[C@H]1O [Compound 54]	15.8	15.8	–	31.6	–	–
CN(C[C@H]1O[C@@H](n2ccc3c(N)ncnc32)[C@H](O)[C@@H]1O)c1ccc2cc(Br)cnc2c1 [Compound 52]	63.1	158	–	398	–	–
Nc1ncnc2c1ccn2[C@@H]1C[C@H](CCc2ccc3ccc(NCc4ccc(Cl)cc4)nc3c2)[C@@H](O)[C@H]1O [Compound 124]	2	5.01	–	0.631	–	–
Nc1ncnc2c1ccn2[C@@H]1C[C@H](CCc2ccc3cc(Br)cnc3c2)[C@@H](O)[C@H]1O [Compound 129]	2.51	15.8	12.6	–	–	–
Nc1ncc2ccc(CC[C@H]3C[C@@H](n4ccc5c(Cl)ncnc54)[C@H](O)[C@@H]3O)cc2n1 [Compound 215]	7.94	39.8	–	1260	–	–
Nc1ccc2ccc(CC[C@H]3O[C@@H](n4ccc5c(Cl)ncnc54)[C@H](O)[C@@H]3O)cc2n1 [Compound 133]	0.631	6.31	–	6.31	–	–
Nc1ncnc2c1ccn2[C@@H]1C[C@H](OCc2ccc3cccnc3c2)[C@@H](O)[C@H]1O [Compound 64]	–	–	–	~1070	6.90	6.10
Nc1ncnc2c1ccn2[C@@H]1O[C@H](COc2ccc3ccnnc3c2)[C@@H](O)[C@H]1O [Compound 69]	631	3160	–	> 20000	–	–
Nc1cnc2ccc(CC[C@H]3C[C@@H](n4ccc5c(Cl)ncnc54)[C@H](O)[C@@H]3O)cc2n1 [Compound 143]	10	50.1	–	2510	–	–
C=C(C)c1cnc2cc(OC[C@H]3O[C@@H](n4ccc5c(N)ncnc54)[C@H](O)[C@@H]3O)ccc2c1 [Compound 212]	20	50.1	200	–	–	–

Compound	IC50 [1] [nM]	IC50 [2] [nM]	IC50 [3, 4] [nM]	IC50 [3, 5] [nM]	pIC50 [1]	pIC50 [2]
Nc1ncnc2c1ccn2[C@@H]1O[C@H](COc2cc3ncccc3cc2C(F)(F)F)[C@@H](O)[C@H]1O [Compound 38]	200	398	–	794	–	–
Nc1ncnc2c1ccn2[C@@H]1C[C@H](CCc2ccc3ccc(NC4CC4)nc3c2)[C@@H](O)[C@H]1O [Compound 152]	0.501	3.98	–	< 1.17	–	–
COCc1cnc2cc(OC[C@H]3O[C@@H](n4ccc5c(N)ncnc54)[C@H](O)[C@@H]3O)ccc2c1 [Compound 120]	79.4	316	–	316	–	–
CNc1ccc2ccc(CC[C@H]3O[C@@H](n4ccc5c(Cl)ncnc54)[C@H](O)[C@@H]3O)cc2n1 [Compound 128]	7.94	63.1	–	200	–	–
Cc1ncnc2c1ccn2[C@@H]1C[C@H](CCc2ccc3ccc(NCc4ccc(Cl)cc4)nc3c2)[C@@H](O)[C@H]1O [Compound 193]	1	7.94	–	3.16	–	–
Nc1ccc2ccc(OC[C@H]3O[C@@H](n4ccc5c(N)ncnc54)[C@H](O)[C@@H]3O)cc2n1 [Compound 218]	2.51	5.01	5.01	–	–	–
Nc1ncnc2c1ccn2[C@@H]1O[C@H](CNc2ccc3cc(Br)cnc3c2)[C@@H](O)[C@H]1O [Compound 51]	10	15.8	–	~15.5	–	–
Nc1ncnc2c1ccn2[C@@H]1O[C@H](CCc2ccc3ccc(NCc4ccc(Cl)cc4)nc3c2)[C@@H](O)[C@H]1O [Compound 135]	1	6.31	–	~2.82	–	–
COc1ncnc2c1ccn2[C@@H]1O[C@H](CN(C)c2ccc3cc(Br)cnc3c2)[C@@H](O)[C@H]1O [Compound 88]	> 10000	7940	–	> 10000	–	–
Nc1ncnc2c1ccn2[C@@H]1C[C@H](CCc2ccc3cc(Br)c(NCC4CC4)nc3c2)[C@@H](O)[C@H]1O [Compound 148]	398	794	–	200	–	–
Nc1ncnc2c1ccn2[C@@H]1C[C@H](Cc2ccc3ccncc3c2)[C@@H](O)[C@H]1O [Compound 95]	316	501	–	> 10000	–	–
CC(C)C(=O)O[C@@H]1[C@H](OC(=O)C(C)C)[C@@H](COc2ccc3ccc(C(F)(F)F)nc3c2)O[C@H]1n1ccc2c(N)ncnc21 [Compound 72]	> 10000	> 100000	–	> 10000	–	–
Nc1ncnc2c1ccn2[C@@H]1O[C@H](CNc2ccc3cccnc3c2)[C@@H](O)[C@H]1O [Compound 49]	3.98	10	–	10	–	–
Nc1ncnc2c1ccn2[C@@H]1O[C@H](/C=C/c2ccc3cc(Cl)cnc3c2)[C@@H](O)[C@H]1O [Compound 57a]	31.6	50.1	–	63.1	–	–
O[C@@H]1[C@H](O)[C@@H](CCc2ccc3ccc(NCc4ccc(Cl)cc4)nc3c2)O[C@H]1n1ccc2c(Cl)ncnc21 [Compound 127]	12.6	100	–	126	–	–
Nc1ncnc2c1ccn2[C@@H]1O[C@H](CCc2ccc3cc(Cl)cnc3c2)[C@@H](O)[C@H]1O [Compound 59]	25.1	79.4	–	126	–	–
Nc1ncnc2c1ccn2[C@@H]1O[C@H](CNc2ccc3cc(Cl)cnc3c2)[C@@H](O)[C@H]1O [Compound 50]	10	7.94	–	25.1	–	–
Nc1ncnc2c1ccn2[C@@H]1O[C@H](COc2cc3ncc(Br)cc3cc2F)[C@@H](O)[C@H]1O [Compound 106]	63.1	158	–	398	–	–
CC(C)(C)Nc1ccc2ccc(CC[C@H]3C[C@@H](n4ccc5c(N)ncnc54)[C@H](O)[C@@H]3O)cc2n1 [Compound 150]	1	15.8	–	31.6	–	–
Nc1ncnc2c1ccn2[C@@H]1O[C@H](COc2ccc3ccc(NCc4ccc(Cl)cc4)nc3c2)[C@@H](O)[C@H]1O [Compound 132]	0.794	2.51	–	2.51	–	–
O[C@@H]1[C@H](O)[C@@H](COc2ccc3ccc(NCc4ccc(Cl)cc4)nc3c2)O[C@H]1n1ccc2c(Cl)ncnc21 [Compound 131]	7.94	63.1	–	~66.1	–	–
CNc1ccc2ccc(OC[C@H]3O[C@@H](n4ccc5c(Cl)ncnc54)[C@H](O)[C@@H]3O)cc2n1 [Compound 136]	7.94	50.1	–	501	–	–
Nc1ncnc2c1ccn2[C@@H]1O[C@H](COc2cc(Cl)c3cccnc3c2)[C@@H](O)[C@H]1O [Compound 102]	100	501	–	> 10000	–	–
